# In article PMC7806715, “Discovery of small molecules targeting the tandem tudor domain of the epigenetic factor UHRF1 using fragment-based ligand discovery” (Scientific Reports, 2021):
# What was measured:
# UHRF1-TTD = molecular target: T1, UHRF1-TTD (Homo sapiens, UniProt Q96T88); assay: Thermal shift assay (TSA) of TTD; format: binding; details: compound at 500 μM; untagged TTD, 150 mM NaCl; mean ± S.D., n=3
# T1 construct: Using the isolated His6-TTD (aa 123–283) we performed a thermal shift assay; His6 (N, cleaved yes); made in house; host or cells: Rosetta (DE3) E. coli, pMCSG7
# T1 sequence (Q96T88 123-283): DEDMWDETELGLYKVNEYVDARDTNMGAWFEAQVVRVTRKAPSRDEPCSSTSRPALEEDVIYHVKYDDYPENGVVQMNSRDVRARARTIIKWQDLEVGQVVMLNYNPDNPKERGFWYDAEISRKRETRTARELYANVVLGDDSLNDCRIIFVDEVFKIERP
# Method: We used three different assays in parallel to screen a ~ 2300-fragment library to identify hits that bind to TTD or inhibit its activities. The first screening method was a direct binding assay, which generally serves as the basis for most fragment screening. Using the isolated His6-TTD (aa 123–283) we performed a thermal shift assay (TSA) to determine the change in melting temperature upon fragment binding. The change in protein melting temperature (ΔTm) caused by each fragment was calculated by comparison to the DMSO controls on the same plate.
# The fragment screen was carried out on LightCycler 480 Multiwell Plates 384 (Roche). The TSA mix contains 0.15 mg/ml of His6-TTD, 10 × of SYPRO Orange dye (ThermoFisher) in the TSA buffer (50 mM sodium phosphate, pH = 7, 300 mM NaCl). During the screen, 5 µl of TSA mix was dispensed into each well, and 100 nl of chemical fragments stock (10 mM in DMSO) was added to each well by pintool using Tecan Freedom Evo liquid handler to make the final compound concentration 200 µM. After 1 h of incubation at room temperature, the increase of fluorescence at 580 nm (excitation 465 nm) during the 20–90 degree melting (0.04 °C/s) was measured by LightCycler 480 Instrument II (Roche). For the fragment screen, on seven of the library plates there were 32-wells of DMSO control, while there were 8-wells of DMSO control in the last plate. […] Using un-tagged TTD for TSA provide closer resemblance to the native state of TTD. The lower salt concentration (150 mM NaCl) also allowed better comparison across three different assays during the dose-dependent SAR studies as both AlphaScreen and TR-FRET assay also use buffers containing 150 mM NaCl.
# [1] = molecular target: T2, His6-UHRF1-full length vs. H3K9me3 peptide (Homo sapiens, UniProt Q96T88); assay: TR-FRET assay: His6-UHRF1-FL binding to H3K9me3 peptide; format: biochemical; details: dose-response, side by side with His6-TTD
# T2 construct: made in house; host or cells: Rosetta (DE3) E. coli, pMCSG7
# T2 sequence (Q96T88 1-793): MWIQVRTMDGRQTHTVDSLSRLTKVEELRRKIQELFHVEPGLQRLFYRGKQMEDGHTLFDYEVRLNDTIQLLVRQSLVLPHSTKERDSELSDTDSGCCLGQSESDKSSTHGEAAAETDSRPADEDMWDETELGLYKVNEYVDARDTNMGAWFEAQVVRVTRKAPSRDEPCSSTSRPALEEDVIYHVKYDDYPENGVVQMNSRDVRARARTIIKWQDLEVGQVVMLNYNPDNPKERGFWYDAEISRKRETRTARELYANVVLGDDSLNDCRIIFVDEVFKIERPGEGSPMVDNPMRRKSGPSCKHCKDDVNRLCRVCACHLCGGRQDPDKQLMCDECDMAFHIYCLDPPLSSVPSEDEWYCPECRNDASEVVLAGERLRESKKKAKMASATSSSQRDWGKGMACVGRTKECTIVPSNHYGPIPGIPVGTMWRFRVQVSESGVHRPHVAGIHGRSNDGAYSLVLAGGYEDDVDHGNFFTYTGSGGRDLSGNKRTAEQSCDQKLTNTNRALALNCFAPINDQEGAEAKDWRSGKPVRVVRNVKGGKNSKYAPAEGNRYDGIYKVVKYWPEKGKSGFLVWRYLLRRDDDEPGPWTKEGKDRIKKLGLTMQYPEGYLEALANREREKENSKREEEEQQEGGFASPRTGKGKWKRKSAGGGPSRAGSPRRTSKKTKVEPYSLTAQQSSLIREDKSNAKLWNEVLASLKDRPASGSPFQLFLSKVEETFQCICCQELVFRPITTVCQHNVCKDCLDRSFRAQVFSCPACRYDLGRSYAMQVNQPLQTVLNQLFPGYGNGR
# Method: The fragment screen was carried out on low volume 384-well white plates (Corning 4512) and the assay was performed at room temperature. The TR-FRET reagent mix contained 200 nM of biotinylated-H3K9me3 peptide (Anaspec), 250 nM of His6-TTD, 25 nM of streptavidin-d2 (CisBio), and 1 × anti-6His-Tb cryptate Gold (Cisbio) in TR-FRET buffer (50 mM sodium phosphate, pH 7, 150 mM NaCl, 1 mM DTT, and 0.1% Triton-X-100). During the screen, 5 μl of TR-FRET reagent mix was dispensed into each well, and 100 nl of chemical fragments stock (10 mM in DMSO) was added to each well by pintool using Tecan Freedom Evo liquid handler to make the final compound concentration 196 μM. After 1 h of incubation, the fluorescent signals at 665 nm and 620 nm of each plate were measured by the Tecan Infinite M1000 plate reader (excitation 340 nm, 60 μs lag time, and 500 μs integration time) and the TR-FRET signal was calculated by the ratio of 665 nm/620 nm fluorescent signal. For the fragment screen, on seven of the library plates there were 32-wells of DMSO control, while there were 8-wells of DMSO control in the last plate. The TR-FRET assays for the interactions between His6-TTD-PHD and His6-UHRF1-FL binding to biotinylated-H3K9me3 (1-20) peptide were similar to the assay for His6-TTD. […]
# [2] = molecular target: His-USP7-UBL1/2 (control protein) (Homo sapiens, UniProt Q93009); assay: Intrinsic tryptophan fluorescence of control protein; format: binding; details: 3.2 µM protein
# His-USP7-UBL1/2 (control protein), sequence (Q93009 560-776 limits assumed): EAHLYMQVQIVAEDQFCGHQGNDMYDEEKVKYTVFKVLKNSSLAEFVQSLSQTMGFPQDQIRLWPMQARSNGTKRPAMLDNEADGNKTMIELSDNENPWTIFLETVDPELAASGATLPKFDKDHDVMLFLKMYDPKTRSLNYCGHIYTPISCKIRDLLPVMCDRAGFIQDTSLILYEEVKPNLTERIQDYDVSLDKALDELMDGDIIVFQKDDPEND
smiles,measurement,setting,value
"Cc1ccnc(C)c1 [2,4-lutidine]",ΔTm at 500 µM,UHRF1-TTD,2.04 ± 0.01 °C
same,inhibition of His6-UHRF1-FL interaction with H3K9me3 peptide (in words),[1],only weakly inhibits
same,effect on tryptophan fluorescence of control protein (in words),[2],did not inhibit
